Measurements published in patent US11191756B2, “Dosing and effect of C5a antagonist with ANCA-associated vasculitis” (CHEMOCENTRYX, INC., priority 2018, dated 2021).
“Also recorded” adds a separate entry of the source.

Tests used:
Format in all cases: in vivo, human
patients with AAV = assay: CLEAR trial clinical outcome in ANCA-associated vasculitis; settings: for clinical benefit / improvement in AAV: 12 week treatment period, avacopan 30 mg twice daily
Excerpt: (A) plots the Birmingham Vasculitis Activity Score; (B) plots the urinary albumin to creatine ration; (C) plots the EuroQOL-5D-5L visual analgue scale; (D) plots the Short Form-36 physical functioning results; and (E) plots the Short Form-36 role emotional results. Patients receiving high dose prednisone are plotted with diamonds; patients receiving avacopan with low dose prednisone are plotted with squares; and patients receiving avacopan with no prednisone are plotted with triangles.
(§1) The CLEAR trial (Jayne D R W, et al. JASN 2017; 28:2756) compared 3 regimens in 67 patients with AAV: (1) full dose prednisone (60 mg daily, tapered); (2) avacopan 30 mg twice daily plus low dose prednisone (20 mg, tapered); (3) avacopan 30 mg twice daily plus no prednisone. All also received either cyclophosphamide or rituximab. There was a 12-week treatment period with 12 week follow-up period

complement factor Bb = assay: Plasma complement factor Bb by ELISA in AAV patients of the CLEAR trial; settings: for Bb, change in plasma level (Summary of Results): AAV patients, 12 week treatment period, all also received cyclophosphamide or rituximab
Method: as §1
(§2) Plasma samples were collected from AAV patients who participated in CLEAR study at baseline and at 6 hour, Days 8, 29, and 85 during treatment. Plasma samples from 20 health controls matched for age, gender and ethnic background were collected at UNC Kidney Center.
(§3) EDTA whole blood was kept on ice immediately after collection and centrifuged at 4° C. for plasma preparation. Plasma samples were stored at −80° C. freezer until analysis for complement Bb, C5a, […] and properdin by ELISA in one thaw.
(§4) Paired t-test was used for within group comparison and unpaired t-test was used for between group comparisons using log transformed data. P-values were corrected for multiple comparisons.

complement factor C5a = assay: Plasma complement factor C5a by ELISA in AAV patients of the CLEAR trial; settings: for C5a, change in plasma level (Summary of Results): AAV patients, 12 week treatment period, all also received cyclophosphamide or rituximab
Method: as §1, §2, §3, §4

sC5b-9 = assay: Plasma sC5b-9 by ELISA in AAV patients of the CLEAR trial; settings: for sC5b-9, change in plasma level (Summary of Results): AAV patients, 12 week treatment period, all also received cyclophosphamide or rituximab; for circulating sC5b-9 levels, change from baseline: any treatment group, 6 h, days 8, 29, 85
Method: as §1, §2, §3, §4

complement factor C3a = assay: Plasma complement factor C3a by ELISA in AAV patients of the CLEAR trial; settings: for C3a, change in plasma level (Summary of Results): AAV patients, 12 week treatment period, all also received cyclophosphamide or rituximab; for C3a levels compared to baseline: full dose prednisone
Method: as §1, §2, §3, §4

properdin = assay: Plasma properdin by ELISA in AAV patients of the CLEAR trial; settings: for Properdin, change in plasma level (Summary of Results): AAV patients, 12 week treatment period, all also received cyclophosphamide or rituximab; for circulating properdin levels, change from baseline: any treatment group, 6 h, days 8, 29, 85
Method: as §1, §2, §3, §4

[1] = CLEAR trial, AAV patients, avacopan with low dose or no prednisone
[2] = day 85, when prednisone was tapered

Structure (SMILES) | Bb, change in plasma level (Summary of Results) (complement factor Bb) | C5a, change in plasma level (Summary of Results) (complement factor C5a) | sC5b-9, change in plasma level (Summary of Results) (sC5b-9) | circulating sC5b-9 levels, change from baseline (sC5b-9) | C3a, change in plasma level (Summary of Results) (complement factor C3a) | Properdin, change in plasma level (Summary of Results) (properdin) | circulating properdin levels, change from baseline (properdin) | further results
Cc1ccc(NC(=O)[C@H]2CCCN(C(=O)c3c(C)cccc3F)[C@H]2c2ccc(NC3CCCC3)cc2)cc1C(F)(F)F [Avacopan, avacopan] | No changes | No changes | No changes | did not change; also recorded: No statistically significant changes | No changes | No changes | No statistically significant changes | clinical benefit / improvement in AAV (patients with AAV): achieved clinical benefit; also recorded: rapid improvement; clinical benefit / improvement in AAV (patients with AAV; listed as avacopan): rapidly improves; disease activity (Birmingham Vasculitis Activity Score, urinary albumin to creatinine ratio) (patients with AAV; [1]): rapid decrease; health-related quality of life (EuroQOL-5D-5L, Short Form-36) (patients with AAV; [1]): significant improvement; Bb levels during treatment compared to pre-dose (complement factor Bb; avacopan 30 mg twice daily with low dose or no prednisone, 6 h, days 8, 29, 85): did not impact; also recorded: No change; C5a levels during treatment compared to baseline (complement factor C5a; avacopan 30 mg twice daily with low or no prednisone, 6 h, days 8, 29, 85): did not impact; also recorded: No change; C3a levels during treatment compared to baseline (complement factor C3a; avacopan 30 mg twice daily without prednisone, 6 h, days 8, 29, 85): did not impact; also recorded: No change
C[C@]12C=CC(=O)C=C1CC[C@@H]1[C@@H]2C(=O)C[C@@]2(C)[C@H]1CC[C@]2(O)C(=O)CO [Prednisone, prednisone] | ↓ | ↓ | No changes | No statistically significant changes | ↓ | No changes | No statistically significant changes | Bb levels (complement factor Bb; [2]): rising again; also recorded: rose again; Bb levels compared to pre-dose (complement factor Bb; days 8 and 29, full dose prednisone 60 mg daily, tapered): decreased significantly; C5a levels compared to baseline (complement factor C5a; day 8 and 29, high dose prednisone): decreased significantly; also recorded: decrease; C5a levels (complement factor C5a; [2]): rising again; also recorded: rose again; C3a levels compared to baseline (complement factor C3a; 6 hours): decreased; C3a levels (complement factor C3a; [2]): rising again; also recorded: rose again; C3a levels compared to baseline (complement factor C3a; days 8 and 29): decreased significantly; also recorded: further decreased
